BindingDB's records for doi:10.7270/Q2DV1HGT (Burnham Center For Chemical Genomics, 2012)
pIC50: −log10 of the molar value.

Molecular target: T1, Tyrosine-protein phosphatase non-receptor type 5 (Homo sapiens, UniProt P54829)
T1 sequence (P54829 whole entry): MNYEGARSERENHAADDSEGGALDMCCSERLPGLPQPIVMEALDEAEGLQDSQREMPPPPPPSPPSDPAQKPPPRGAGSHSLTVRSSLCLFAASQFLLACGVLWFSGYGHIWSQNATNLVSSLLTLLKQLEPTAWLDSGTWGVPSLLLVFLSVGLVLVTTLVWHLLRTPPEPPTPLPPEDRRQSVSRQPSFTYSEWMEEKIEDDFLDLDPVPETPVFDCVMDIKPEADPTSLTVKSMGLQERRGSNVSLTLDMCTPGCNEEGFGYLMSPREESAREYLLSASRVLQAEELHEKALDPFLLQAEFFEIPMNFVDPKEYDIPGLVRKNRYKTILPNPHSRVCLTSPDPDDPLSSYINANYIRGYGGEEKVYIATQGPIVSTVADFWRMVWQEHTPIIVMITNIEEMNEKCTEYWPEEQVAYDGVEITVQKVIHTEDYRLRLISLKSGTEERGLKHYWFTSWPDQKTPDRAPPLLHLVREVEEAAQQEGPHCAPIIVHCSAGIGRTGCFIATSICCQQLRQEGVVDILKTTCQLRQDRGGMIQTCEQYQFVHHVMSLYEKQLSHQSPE
Experiment: STEP phosphatase inhibitors, confirmation, biochemical, fluorescence intensity, uHTS hits (AID 602372)

Row | Compound | pIC50
1 | COc1ccc(CN=Nc2nc(O)c(CC(=O)O)s2)cc1OCc1ccc(Cl)cc1Cl [[2-({3-[(2,4-dichlorobenzyl)oxy]-4-methoxybenzylidene}hydrazono)-4-oxo-1,3-thiazolidin-5-yl]acetic acid] | 5.01
2 | CCN(CC)P(=O)(NC(=O)C(Cl)(Cl)Cl)N(CC)CC [MLS000564159] | < 4.10
3 | S=C1N=C2C(=C3SCCS3)CCCC2C(c2ccccc2)N1 (stereo not given) [MLS000516376] | 4.65
4 | C=c1c(O)c(O)c(=C2C(=O)C(=O)C(C)C(=O)C2=O)c(O)c1O (stereo not given) [(3E)-5-hydroxy-6-methyl-3-(2,3,5-trihydroxy-4-methyl-6-oxo-1-cyclohexa-2,4-dienylidene)cyclohex-5-ene-1,2,4-trione] | < 4.10
5 | S=C1N=C(C23CC4CC(CC(C4)C2)C3)CC(c2ccc3c(c2)OCO3)N1 (stereo not given) | 4.25
6 | O=C1C(=O)N(CCCO)C(c2ccc(Br)cc2)C1C(=O)c1ccc(Br)cc1 (stereo not given) [(4E)-5-(4-bromophenyl)-4-[(4-bromophenyl)-oxidanyl-methylidene]-1-(3-oxidanylpropyl)pyrrolidine-2,3-dione] | 4.44
7 | COc1ccc(OC)c(-n2c(O)c3o[nH]c(-c4ccccc4Cl)c-3c2=O)c1 [SMR000046218] | 4.61

The next compounds have a higher pIC50 than those just listed; values first:

Row | pIC50 | Compound
8 | 5.05 | O=C(N/N=C/C1C=CC=CC1=O)c1cccc([N+](=O)[O-])c1 (stereo not given) [MLS002667988]
9 | 5.39 | CSc1ccc(CN=Nc2ccc(S(=O)(=O)Nc3ccccc3C(=O)O)cc2[N+](=O)[O-])cc1 [MLS002245633]
10 | 5.39 | CCOc1cc(CN=Nc2nc(O)c(CC(=O)O)s2)ccc1OCc1ccc(Cl)cc1Cl [2-[2-[(N''E)-N''-[4-(2,4-dichlorobenzyl)oxy-3-ethoxy-benzylidene]hydrazino]-4-keto-2-thiazolin-5-yl]acetic acid]
